This note sets out measurements from US6143875A, “Antibody to DNase involved in apoptosis” (priority 1994, dated 2000).

What is called IC50 is the concentration at which inhibition is half-maximal.

One data set deals with T1, DNase γ (Rattus norvegicus, UniProt O89107).
T1 sequence (O89107 26-310): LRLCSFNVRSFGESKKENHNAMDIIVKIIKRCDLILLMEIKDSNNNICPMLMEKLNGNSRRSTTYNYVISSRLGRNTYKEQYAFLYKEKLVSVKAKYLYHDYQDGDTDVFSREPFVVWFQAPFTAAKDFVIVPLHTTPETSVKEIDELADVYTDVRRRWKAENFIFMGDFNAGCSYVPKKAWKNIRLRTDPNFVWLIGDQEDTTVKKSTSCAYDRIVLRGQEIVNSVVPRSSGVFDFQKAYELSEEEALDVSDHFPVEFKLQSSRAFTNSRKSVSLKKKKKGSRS
Put plainly: DNase (endonuclease) activity assay, HeLa S3 nuclei as substrate (Assay 1). In kind it is biochemical. The following applies: for optimal concentration for full DNase γ activity: both Ca2+ and Mg2+ required, other cation at 3 mM; for DNase activity (%) γ: optimal mixture =100%. On the procedure:
(§1) The activity of endonuclease (DNase) can be assayed by observing fragmentation of chromosomal DNA in the nucleus on 2% agarose gel electrophoresis using, as a substrate, the nucleus of HeLa S3 cell (human cervical carcinoma epithelial cell) which is completely free of endogenous endonuclease [Biochem. Biophys. Res. Commun. 194, (1993), pp, 30-31].
(§2) To be specific, a reaction mixture (30 μl) of HeLa S3 cells (1.67×10^7 /ml) and DNase fraction is incubated at 37° C. for 60 minutes and the reaction is stopped by cooling same on ice. Then, the reaction mixture after reaction is centrifuged at 20,000× g for 20 seconds, and the precipitated nuclei are dissolved in a lysis buffer [50 mM Tris-HCl (pH 7.8), 10 mM EDTA, 0.5% w/v N-lauronyl sarcosylate Na]. The obtained DNA is thoroughly treated with 0.5 mg/ml RNase A for 20 minutes and with 0.5 mg/ml proteinase K for 30 minutes, after which they are subjected to 2% agarose gel electrophoresis. […] The ratio of fragmentation (percent fragmentation) is calculated from the density of DNA fragments with a molecular weight of less than 5 kb.
(§3) As a suitable reaction solution for the assay of the activity of DNases α and β, 50 mM MES-NaOH (-pH 5.6) buffer containing 3 mM MgCl2, 1 mM 2-mercaptoethanol and 0.1 mM PMSF is used. As a suitable reaction solution for the assay of the activity of DNase γ, 50 mM MOPS-NaOH (pH 7.2) buffer containing 3 mM CaCl2, 3 mM MgCl2, 1 mM 2-mercaptoethanol and 0.1 mM PMSF is used.
(§4) Effects of divalent cations on the activity of DNase α, […] were examined. To be specific, the effect of Mg^2+ was examined by assaying the activity of purified DNases α, β and γ in the presence of 3 mM CaCl2 with increasing concentrations of MgCl2. The effect of Ca^2+ was examined by assaying the activity of DNases α, β and γ purified in the same manner, with increasing concentrations of CaCl2 in the presence of 3 mM MgCl2. The effect of Zn^2+ was examined in 50 mM […] (pH 5.6) buffer containing 3 mM MgCl2, 1 mM 2-mercaptoethanol and 0.1 mM PMSF with increasing concentrations of ZnCl2 with regard to DNases α and β, and it was examined in 50 mM MOPS-NaOH (pH 7.2) buffer containing 3 mM CaCl2, 3 mM MgCl2, 1 mM 2-mercaptoethanol and 0.1 mM PMSF, with increasing concentrations of ZnCl2 with regard to DNase γ. The results are shown in FIG. 8, FIG. 8B, and FIG. 8C. As a result, DNase γ required both Ca^2+ and Mg^2+ for full activity, wherein the optimal concentration of the both was 1-3 mM (FIG. 8A and FIG. 8B). DNase γ was sensitive to Zn^2+, and its activity was inhibited by 50% by Zn^2+ with a low concentration of 40 μM (FIG. 8c).
(§5) The activity of DNases α and β was calculated relative to the endonuclease activity which was assayed using HeLa S3 cell nuclear chromatin DNA as a substrate and 50 mM MES-NaOH (pH 5.6) buffer containing 3 mM MgCl2, 1 mM 2-mercaptoethanol and 0.1 mM PMSF as a reaction solution, and taken as 100%; and the activity of DNase γ was calculated relative to the endonuclease activity which was assayed using HeLa S3 cell nuclear chromatin DNA as a substrate and 50 mM MOPS-NaOH (pH 7.2) buffer containing 3 mM CaCl2, 3 mM MgCl2, 1 mM 2-mercaptoethanol and 0.1 mM PMSF as a reaction solution, and taken as 100%. In the Table, "-" means deletion of said components from the above-mentioned optimal reaction mixture and "+" means addition of said components to the above-mentioned optimal reaction mixture.

A further data set has as its system DNase β. The description is as above. The following applies: for effect of divalent cation on DNase β activity: increasing concentrations of MgCl2 or CaCl2. In kind it is biochemical, rat. As to the method: as §1, §2, §3, §4, §5
Another data set has as its system DNase α. The data set is described as above. Particulars: for effect of divalent cation on DNase α activity: increasing concentrations of MgCl2 or CaCl2. In kind it is biochemical, rat. As to the method: as §1, §2, §3, §4, §5
The test system of data set [1] is HeLa S3 cell nuclear chromatin DNA. Nature of the data set: Endonuclease activity of purified DNases in HeLa S3 nuclear assay system. In kind it is biochemical, human. On the procedure: as §1, §2, §3
The optimal pH for the activity of DNases α, β and γ was determined by assaying HeLa S3 nuclei in various buffers from acidic to basic (Reference Example 3, Assay 1) and calculating from the percentage of DNA fragmentation.
as §5

Data set [2] concerns DNA derived from HeLa S3 cell nuclei. Nature of the data set: End labeling method, DNA cleavage mode. Particulars: 3' and 5' end labeling with/without alkaline phosphatase. In kind it is biochemical, human.
Setting [3] is: +3 mM added to optimal reaction mixture (=100%).
[4] abbreviates: +Mn2+ 3 mM, -Mg2+/Ca2+, optimal mixture =100%.
The mark [5] stands for this setting: +Zn2+ 0.1 mM, optimal mixture =100%.
The mark [6] stands for this setting: increasing ZnCl2 in pH 5.6 buffer, 3 mM MgCl2, read-out: Inhibition by Zn2+: IC50.
Where [7] appears, read: up to the concentration of 1 mM.
Where [8] appears, read: +aurintricarboxylate 30 μM, optimal mixture =100%.
The mark [9] stands for this setting: +aurintricarboxylate 100 μM, optimal mixture =100%.

Where “and” joins values, the source holds several entries; their conditions need not be identical. Identical values can stand only once.

As to `[Ca+2].[Cl-].[Cl-]` [Ca^2+], the “optimal concentration for full DNase γ activity” value at DNase γ was 1 to 3 mM. Besides, in the data set on DNase β (setting [3]), the “DNase activity (%) β” value worked out at 104%. In the data set on DNase β, the “effect of divalent cation on DNase β activity” value is given as “not influenced”. Moreover, in the data set on DNase α (setting [3]), the “DNase activity (%) α” value was 101%. For the same molecule, the “effect of divalent cation on DNase α activity” value in the data set with DNase α was “not influenced”.
On to `[Cl-].[Cl-].[Mg+2]` [Mg^2+], for which, at DNase γ, the “optimal concentration for full DNase γ activity” value lay in the range of 1 to 3 mM. Besides, the “DNase activity (%) β” value with DNase β (setting [3]) was found to be 102%. Also, the “effect of divalent cation on DNase β activity” value with DNase β was “not influenced”. Besides, the “DNase activity (%) α” value in the data set on DNase α (setting [3]) amounted to 104%. Besides, the “effect of divalent cation on DNase α activity” value in the data set with DNase α is “not influenced”.
Consider `[Mn+2]` [Mn^2+], for which the “DNase activity (%) γ” value on DNase γ (+Mn2+ 3 mM, -Mg2+/Ca2+) turned out to be 45%. For the same molecule, the “DNase activity (%) β” value in the data set on DNase β (setting [4]) worked out at 103%. The “DNase activity (%) α” value in the data set on DNase α (setting [4]) turned out to be 104%.
For the molecule `[Cl-].[Cl-].[Zn+2]` [Zn^2+], on DNase γ (+Zn2+ 0.1 mM), the “DNase activity (%) γ” value stood at 21%. In addition, the IC50 at DNase γ (increasing ZnCl2 in 50 mM MOPS-NaOH (pH 7.2), 3 mM CaCl2, 3 mM MgCl2, read-out: Inhibition by Zn2+: IC50) is 40 µM; at DNase β (setting [6]) it was at least 1000 µM; on DNase α (setting [6]), at least 1000 µM. Moreover, the “DNase activity (%) β” value with DNase β (setting [5]) worked out at 93%. The “effect of Zn2+ on DNase β activity” value in the data set with DNase β (setting [7]) is “not influenced”. Moreover, in the data set on DNase α (setting [5]), the “DNase activity (%) α” value was 90%. Besides, the “effect of Zn2+ on DNase α activity” value in the data set on DNase α (setting [7]) is “not influenced”.
As for `O=C(O)C1=CC(=C(c2ccc(O)c(C(=O)O)c2)c2ccc(O)c(C(=O)O)c2)C=CC1=O` [aurintricarboxylic acid], the “DNase activity (%) γ” value on DNase γ (+aurintricarboxylate 30 μM) is 29%; at DNase γ (+aurintricarboxylate 100 μM), 0%. Further, the “inhibition of DNase γ activity” value against DNase γ (at a concentration of 100 μM) is given as “completely inhibited”. For the same molecule, the “DNase activity (%) β” value in the data set on DNase β (setting [8]) and in the data set with DNase β (setting [9]) was 0% in each case. Besides, the “inhibition of DNase β activity” value in the data set on DNase β (at a concentration of 100 μM) is on record as “completely inhibited”. In the data set on DNase α, the “inhibition of DNase α activity” value is recorded as “completely inhibited”. Also, the figures for the “DNase activity (%) α” value in the data set with DNase α (setting [8]) and in the data set with DNase α (setting [9]) were 32% and 0%, respectively.

B1: DNase γ: novel endonuclease of rat cell nuclei cleaving linker sites of chromatin DNA; SEQ ID NO: 1, amino acids 26-310 (protein)
chain: LRLCSFNVRSFGESKKENHNAMDIIVKIIKRCDLILLMEIKDSNNNICPMLMEKLNGNSRRSTTYNYVISSRLGRNTYKEQYAFLYKEKLVSVKAKYLYHDYQDGDTDVFSREPFVVWFQAPFTAAKDFVIVPLHTTPETSVKEIDELADVYTDVRRRWKAEIFIFMGDFNAGCSYVPKKAWKNIRLRTDPNFVWLIGDQEDTTVKKSTSCAYDRIVVRGQEIVNSVVPRSSGVFDFQKAYELSEEEALDVSDHFPVEFKLQSSRAFTNSRKSVSLKKKKKGSRS
For B1, the Divalent cation dependency result in data set [1] is “Ca^2+ /Mg^2+, Mn^2+ dependent”. Also, the “DNase activity (%)” value in data set [1] (-2-mercaptoethanol (deleted from optimal reaction mixture =100%)) is 96%; in data set [1] (-Ca2+ (deleted from optimal reaction mixture =100%)), 1%; in data set [1] (-Mg2+ (deleted from optimal reaction mixture =100%)) it was 16%; in data set [1] (-PMSF (deleted from optimal reaction mixture =100%)), 94%. In addition, the DNA cleavage mode in data set [2] is 3'-OH/5'-P termini and 3'--OH, 5'-P end forming type.
